Source: the NIST ThermoML archive (doi:10.1021/acs.jced.7b00902)

Settings: Surface laser light scattering (SLLS); for viscosity: Liquid

FC(F)(F)/C=C/Cl [(E)-1-chloro-3,3,3-trifluoroprop-1-ene]
Settings	surface tension liquid-gas [mN/m]	viscosity [mPa·s]
303.14 K	13.3	0.2857
313.15 K	12.37	0.2504
323.19 K	10.89	0.2265
333.18 K	9.74	0.2079
343.16 K	8.62	0.1891
353.19 K	7.58	0.1695
363.15 K	6.4	0.1595
373.14 K	5.38	0.1406
373.17 K	5.38	0.1448
383.15 K	4.37	0.1318
393.17 K	3.41	0.1191
403.15 K	2.45	0.1047

O=C(C(F)(F)C(F)(F)F)C(F)(C(F)(F)F)C(F)(F)F [dodecafluoro-2-methylpentan-3-one]
Settings	surface tension liquid-gas [mN/m]	viscosity [mPa·s]
303.16 K	10.09	0.585
313.12 K	9.26	0.4939
313.18 K	9.24	0.5033
323.15 K	8.43	0.4357
333.12 K	7.56	0.3776
343.15 K	6.7	0.329
353.16 K	5.84	0.2907
363.14 K	4.99	0.2569
373.14 K	4.19	0.228
383.13 K	3.44	0.1998
393.15 K	2.71	0.1719
403.17 K	2.02	0.1471
413.18 K	1.37	0.1309
423.15 K	0.78	0.104
433.02 K	0.27	0.0768
